Data taken from ChEMBL document CHEMBL3751763, “Polyketide butenolide, diphenyl ether, and benzophenone derivatives from the fungus Aspergillus flavipes PJ03-11” (Bioorg Med Chem Lett, 2016).

Assay: Inhibition of Saccharomyces cerevisiae alpha-Glucosidase using p-nitrophenyl-alpha-D-glucopyranoside as substrate assessed as formation of para-nitrophenol preincubated for 5 mins followed by addition of substrate measured after 15 mins by microplate reader analysis

| SMILES | IC50 |
| --- | --- |
| COC(=O)c1cc(O)cc(O)c1C(=O)c1c(O)c(Cl)c(C)c(Cl)c1O | > 2000 nM |
| COC(=O)c1cc(O)cc(OC)c1Oc1cc(C)c(Cl)c(O)c1C(=O)O | > 2000 nM |
| COc1cc(O)cc(C(=O)O)c1Oc1cc(C)cc(O)c1C(=O)O | > 2000 nM |
| COC(=O)c1c(O)c(Cl)c(C)c(Cl)c1Oc1c(OC)cc(O)cc1C(=O)O | 1480 nM |
| COC(=O)c1cc(O)cc(OC)c1Oc1cc(CO)cc(O)c1C(=O)O | > 2000 nM |
| O=C1O/C(=C\c2ccc(O)cc2)C(O)=C1c1ccc(O)cc1 [ASPULVINONE E] | 2700 nM |
| COC(=O)c1cc(O)cc(OC)c1Oc1cc(C)cc(O)c1C(=O)O [ASTERRIC ACID] | > 2000 nM |
| COC(=O)c1cc(O)cc(OC)c1Oc1cc(C)c(Cl)c(O)c1C(=O)OC [METHYL CHLOROASTERRATE] | > 2000 nM |
| O=c1c(O)c(-c2ccc(O)c(O)c2)oc2cc(O)cc(O)c12 [QUERCETIN] | 15 nM |

Further compounds by falling IC50, results first:

| IC50 | SMILES |
| --- | --- |
| 1450 nM | COC(=O)c1cc(O)cc(OC)c1Oc1c(Cl)c(C)c(Cl)c(O)c1C(=O)OC [METYL DICHLOROASTERRATE] |
| 685 nM | C[C@@H]1O[C@@H](O[C@@H]2[C@@H](O)[C@H](O)[C@H](O[C@H]3[C@H](O)[C@@H](O)C(O)O[C@@H]3CO)O[C@H]2CO)[C@@H](O)[C@H](O)[C@H]1N[C@H]1C=C(CO)[C@@H](O)[C@H](O)[C@H]1O (some centres undefined) |
| 385 nM | COC(=O)[C@]1(Cc2ccccc2)OC(=O)C(O)=C1c1ccccc1 |
| 199 nM | COC(=O)c1cc(O)cc(O)c1C(=O)c1c(O)cc(C)cc1O |
| 126 nM | COC(=O)[C@]1(Cc2ccc(O)cc2)OC(=O)C(O)=C1c1ccc(O)cc1 |
| 91 nM | COC(=O)c1cc(O)cc(OC)c1Oc1c(Cl)c(C)c(Cl)c(O)c1C(=O)O [GEODIN HYDRATE] |
| 79 nM | COc1cc(/C=C2\OC(=O)C(c3ccc(O)cc3)=C2O)cc(OC)c1O |
| 42 nM | COc1cc(O)cc(C(=O)O)c1C(=O)c1c(O)c(Cl)c(C)c(Cl)c1O |
| 22 nM | COc1cc(/C=C2\OC(=O)C(c3ccc(O)cc3)=C2O)ccc1O |
| 16 nM | COC(=O)[C@]1(Cc2ccc(O)c(CC=C(C)C)c2)OC(=O)C(OC)=C1c1ccc(O)c(O)c1 |
